{"source": "patent US20260355184A1", "about": "“SMALL MOLECULE DEGRADERS OF HIV-1 TAT PROTEIN” (priority 2022, published 2026)", "key": {"[1]": {"tested_on": "TAR-SIIB promoter (Flag-Tat-Rev fusion protein)", "assay": "Flag-Tat-Rev fusion protein transactivation of TAR-SIIB promoter", "type": "cell-based, HIV-1", "details": "SIIB reporter HEK293T", "protocol": "FIG. 4. […] Shown is n=1. […] Shown is n=1. ARVs: antiretrovirals: 100 nM Efavirenz, 200 nM Lamivudine and 200 nM Raltegravir. C. […] SIIB: a reporter HEK293T stable cell line where the essential apical region of TAR was replaced by the 29-nucleotide stem-loop IIB (SIIB) subdomain of the HIV-1 RRE. A Tat-Rev fusion protein activates transcription of luciferase when Rev binds SIIB, bringing Tat and P-TEFb to RNAPII at the HIV promoter. Shown is mean±SEM of n=4."}, "HeLa-CD4-LTR-LacZ cells": {"tested_on": "HeLa-CD4-LTR-LacZ cells", "assay": "Cytotoxicity assay, Cell-Titer-Glo, HeLa-CD4-LTR-LacZ", "details": "Cell-Titer-Glo in parallel to infectivity assay", "outline": "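HeLa-CD4-LTR-LacZ reporter cells (β-Gal under HIV 5′ LTR) infected with HIV NL4.3; β-Gal activity read 72 h post infection, with parallel Cell-Titer-Glo viability. OM10.1 carry a single wild-type provirus; ACH-2 a single provirus with TAR C37T mutation, defective Tat-TAR feedback.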"}, "OM10.1 cells [2]": {"tested_on": "OM10.1 cells", "assay": "SAHA mediated reactivation from latency in OM10.1 cells", "type": "cell-based, HIV", "details": "day 12 and day 32, vs DMSO+ARVs"}, "OM10.1 cells [3]": {"tested_on": "OM10.1 cells", "assay": "Cell-associated HIV Gag mRNA expression / HIV transcription in latently infected OM10.1 cells", "type": "cell-based", "details": "96-day period with ARVs, n=1", "protocol": "(§1) Next, the activity of these leads against HIV infection was evaluated using the reporter cell line HeLa-CD4-LTR-LacZ, which stably expresses the β-galactosidase (β-Gal) gene under the control of the HIV 5′ LTR. The HIV NL4.3 strain was used for these studies and β-Gal activity was measured 72 hrs post infection (FIG. 3A). Cytotoxicity assays using Cell-Titer-Glo were performed in parallel to assess cell viability (FIG. 3A). […] Their anti-HIV activity was further assessed in acute replication of Jurkat T cells with the NL4.3 strain (FIG. 3A). […] These OM10.1 cells contain a single integrated wild-type provirus, while ACH-2 cells contain a single integrated provirus with a TAR mutation C37T, defective Tat-TAR feedback loop (FIG. 3B)."}, "OM10.1 and ACH-2 cells": {"tested_on": "OM10.1 and ACH-2 cells", "assay": "Toxicity / cell viability in latent cell models", "details": "OM10.1 and ACH2; 96-day period with ARVs", "protocol": "as §1"}, "ACH-2 cells": {"tested_on": "ACH-2 cells", "assay": "Cell-associated HIV Gag mRNA expression / HIV transcription in latently infected ACH-2 cells", "type": "cell-based", "details": "ACH2; 96-day period with ARVs; n=1", "protocol": "as §1"}, "[4]": {"molecular_target": "Tat protein (ubiquitin chains) (Human immunodeficiency virus type 1 (HXB3 ISOLATE), UniProt P69698)", "sequence (P69698 whole entry)": "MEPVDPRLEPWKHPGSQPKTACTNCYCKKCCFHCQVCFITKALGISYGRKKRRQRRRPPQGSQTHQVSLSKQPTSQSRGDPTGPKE", "assay": "Ubiquitin linkage assay: HA-Ubiquitin lysine mutants and Flag-Tat in HEK293T, western blot", "type": "cell-based, HIV", "details": "HA-Ubiquitin mutants, TT-44881 60 μM, 24 hours", "source_text": "FIG. 10. TT-44881's anti-HIV activity engages heterogenous lysine linked Ubiquitin chains (K48 and K33 chains). A. Example of covalent binding of the Ubiquitin chains to the lysine residues of the Tat protein. B. Schematic of the different Ubiquitin chains that can be linked to the Tat protein to induce its degradation or stabilization. C. […] HEK293T cells overexpressing HA-Ubiquitin proteins (which have each lysine singly mutated to arginine or only one lysine present) and Flag-Tat protein were treated with TT-44881. Western blot assays were performed 24 hours later. TT-44881: 60 μM. Shown is representative of n=3.\nWhich Ubiquitin linkage engaged in the TT-44881 degradation activity was also investigated. HEK293T cells were transfected with Tat protein and HA-Ubiquitin which has each lysine singly mutated to arginine or only one lysine present."}, "ACH2 cells": {"tested_on": "ACH2 cells", "assay": "SAHA mediated reactivation from latency in ACH2 cells", "type": "cell-based, HIV", "details": "text: day 12 and 32, FIG. 4B legend: day 12, vs DMSO+ARVs"}}, "note": "“Also recorded” adds a separate entry of the source."}
{"molecule": "O=C(CCCCN1CCCC1=O)c1nn(-c2ccccc2)c2c1CCC2", "note": "[TT-44881]", "values": [{"measurement": "Flag-Tat-Rev transactivation of TAR-SIIB", "setting": "[1]", "value": "inhibit Tat-Rev fusion protein transactivation"}, {"measurement": "toxicity", "setting": "HeLa-CD4-LTR-LacZ cells", "value": "without signs of toxicity"}, {"measurement": "SAHA mediated reactivation from latency", "setting": "OM10.1 cells [2]", "value": "potently blocked SAHA mediated reactivation from latency"}, {"measurement": "HIV transcription (in words)", "setting": "OM10.1 cells [3]", "value": "inhibit HIV transcription"}, {"measurement": "cell viability", "setting": "OM10.1 and ACH-2 cells", "value": "without affecting cell viability"}, {"measurement": "HIV transcription (in words)", "setting": "ACH-2 cells", "value": "inhibit HIV transcription"}, {"measurement": "ubiquitin chain linkages engaged in Tat degradation", "setting": "[4]", "value": "K48-linked ubiquitin chains are involved in TT-44881 activity, K33 linked ubiquitin chains also seemed to be engaged; also recorded: blocks TT-44881 induced Tat degradation"}, {"measurement": "SAHA mediated reactivation from latency", "setting": "ACH2 cells", "value": "potently blocked SAHA mediated reactivation from latency"}]}
{"molecule": "COCCOc1ccc(C(F)(F)F)cc1NC(=O)Cn1cc(C(F)(F)F)cc(Cl)c1=O", "note": "[TT-44863]", "values": [{"measurement": "Flag-Tat-Rev transactivation of TAR-SIIB", "setting": "[1]", "value": "inhibit Tat-Rev fusion protein transactivation"}, {"measurement": "toxicity", "setting": "HeLa-CD4-LTR-LacZ cells", "value": "without signs of toxicity"}, {"measurement": "SAHA mediated reactivation from latency", "setting": "OM10.1 cells [2]", "value": "potently blocked SAHA mediated reactivation from latency"}, {"measurement": "HIV transcription (in words)", "setting": "OM10.1 cells [3]", "value": "inhibit HIV transcription"}, {"measurement": "cell viability", "setting": "OM10.1 and ACH-2 cells", "value": "without affecting cell viability"}, {"measurement": "HIV transcription (in words)", "setting": "ACH-2 cells", "value": "inhibit HIV transcription"}, {"measurement": "SAHA mediated reactivation from latency", "setting": "ACH2 cells", "value": "potently blocked SAHA mediated reactivation from latency"}]}
{"molecule": "CC(C(=O)NCCCn1ccnc1)(c1ccccc1)c1ccccc1", "note": "[TT-44856]", "values": [{"measurement": "toxicity", "setting": "HeLa-CD4-LTR-LacZ cells", "value": "without signs of toxicity"}]}
